Data taken from patent publication US5391540A, “Substituted pyridine compounds” (Rohm and Haas Company, priority 1993, dated 1995).

Experiments:
Assay in all cases: Pre-emergent herbicidal activity (Table A)
Type in all cases: in vivo
[1] = test system: Velvetleaf; conditions: Abutilon theophrasti, pre-emergence, Vele, 11.2 kg/ha, 10-14 days, read-out: herbicidal rating (% inhibition)
Summary of the method: (§1)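 Percent inhibition per species, scored on a rating scale, after pre-emergent soil incorporation: test compound in acetone or water carrier mixed into cover soil, layered over seeded topsoil or vegetative propagules.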

[2] = test system: Canada thistle; conditions: Cirsium arvense, pre-emergence, Cath, 11.2 kg/ha, 10-14 days, read-out: herbicidal rating (% inhibition)
Summary of the method: as §1

[3] = test system: Downy Brome; conditions: Bromus tectorum, pre-emergence, Dobr, 11.2 kg/ha, 10-14 days, read-out: herbicidal rating (% inhibition)
Summary of the method: as §1

[4] = test system: Yellow Nutsedge; conditions: Cyperus, pre-emergence, Yens, 11.2 kg/ha, 10-14 days, read-out: herbicidal rating (% inhibition)
Summary of the method: as §1

[5] = test system: Common Lambsquarters; conditions: Chenopodium album, pre-emergence, Colq, 11.2 kg/ha, 10-14 days, read-out: herbicidal rating (% inhibition)
Summary of the method: as §1

[6] = test system: Morningglory; conditions: Ipomoea, pre-emergence, Mogl, 11.2 kg/ha, 10-14 days, read-out: herbicidal rating (% inhibition)
Summary of the method: as §1

[7] = test system: Cocklebur; conditions: Xanthium strumarium, pre-emergence, Cobu, 11.2 kg/ha, 10-14 days, read-out: herbicidal rating (% inhibition)
Summary of the method: as §1

[8] = test system: Quackgrass; conditions: pre-emergence, Rhqg, 11.2 kg/ha, 10-14 days, read-out: herbicidal rating (% inhibition)
Summary of the method: as §1

[9] = test system: Pennsylvania Smartweed; conditions: pre-emergence, Pesw, 11.2 kg/ha, 10-14 days, read-out: herbicidal rating (% inhibition)
Summary of the method: as §1

[10] = test system: Rhizome Johnsongrass; conditions: Sorghum halepense, pre-emergence, Rhjg, 11.2 kg/ha, 10-14 days, read-out: herbicidal rating (% inhibition)
Summary of the method: as §1

[11] = test system: Barnyardgrass; conditions: Echinochloa crus-galli, pre-emergence, Bygr, 11.2 kg/ha, 10-14 days, read-out: herbicidal rating (% inhibition)
Summary of the method: as §1

SMILES | inhibition at 11200 g/ha [1] [%] | inhibition at 11200 g/ha [2] [%] | inhibition at 11200 g/ha [3] [%] | inhibition at 11200 g/ha [4] [%] | inhibition at 11200 g/ha [5] [%] | inhibition at 11200 g/ha [6] [%] | inhibition at 11200 g/ha [7] [%] | inhibition at 11200 g/ha [8] [%] | inhibition at 11200 g/ha [9] [%] | inhibition at 11200 g/ha [10] [%] | inhibition at 11200 g/ha [11] [%]
COC(=O)c1c(OC)nc(C(F)(F)F)c(N=CN(C)C)c1CC(C)C [Compound 62, 3-pyridinecarboxylic acid, 5-[[(dimethylamino)methylene]amino]-2-methoxy-4-(2-methylpropyl)-6-(trifluoromethyl)-, methyl ester] | 75 to 100 | 75 to 100 | 75 to 100 | 25 to 49 | 75 to 100 | 75 to 100 | 25 to 49 | 75 to 100 | 75 to 100 | 50 to 74 | 75 to 100
COC(=O)c1c(OC)nc(C(F)(F)F)c(C(=O)N2CCSCC2)c1CC(C)C [Compound 70, 3-pyridinecarboxylic acid, 2-methoxy-4-(2-methylpropyl)-5-(4-thiomorpholinylcarbonyl)-6-(trifluoromethyl)-, methyl ester] | 0 to 24 | 50 to 74 | 50 to 74 | 25 to 49 | 75 to 100 | 50 to 74 | 0 to 24 | 50 to 74 | 0 to 24 | 0 to 24 | 75 to 100
CCOc1nc(C(F)(F)F)c(C(=NC)SC)c(CC(C)C)c1C(=O)OC [Compound 46, 3-pyridinecarboxylic acid, 2-ethoxy-5-[(methylimino)(methylthio)methyl]-4-(2-methylpropyl)-6-(trifluoromethyl)-, methyl ester] | 50 to 74 | 75 to 100 | 75 to 100 | 0 to 24 | 75 to 100 | 75 to 100 | 0 to 24 | 75 to 100 | 75 to 100 | 0 to 24 | 75 to 100
CCOC(=O)c1c(C(F)(F)C(F)(F)F)nc(OC)c(C(=O)OC)c1CC(C)C [Compound 11, 3,5-pyridinedicarboxylic acid, 2-methoxy-4-(2-methylpropyl)-6-(pentafluoroethyl)-, 5-ethyl 3-methyl ester] | 25 to 49 | 25 to 49 | 75 to 100 | 75 to 100 | 75 to 100 | 50 to 74 | 0 to 24 | 75 to 100 | 75 to 100 | 0 to 24 | 75 to 100
COC(=O)c1c(OC)nc(C(F)(F)F)c(C(=O)n2cccn2)c1CC(C)C [Compound 42, 3-pyridinecarboxylic acid, 2-methoxy-4-(2-methylpropyl)-5-(1H-pyrazo1-1-ylcarbonyl)-6-(trifluoromethyl)-, methyl ester] | 75 to 100 | 75 to 100 | 75 to 100 | 50 to 74 | 75 to 100 | 75 to 100 | 75 to 100 | 75 to 100 | 75 to 100 | 50 to 74 | 75 to 100
CCSC=Nc1c(C(F)(F)F)nc(OC)c(C(=O)OC)c1CC(C)C [Compound 78, 3-pyridinecarboxylic acid, 5-[[(ethylthio)methylene]amino]-2-methoxy-4-(2-methylpropyl)-6-(trifluoromethyl)-, methyl ester] | 75 to 100 | 75 to 100 | 75 to 100 | 0 to 24 | 75 to 100 | 75 to 100 | 0 to 24 | 50 to 74 | 75 to 100 | 0 to 24 | 75 to 100
CCCc1c(C(=O)OC)c(OC)nc(C(F)(F)F)c1C(=O)OC [Compound 91, 3,5-pyridinedicarboxylic acid, 2-methoxy-4-propy1-6-(trifluoromethyl)-, dimethyl ester] | 75 to 100 | 75 to 100 | 75 to 100 | 75 to 100 | 75 to 100 | 75 to 100 | 25 to 49 | 75 to 100 | 75 to 100 | 75 to 100 | 75 to 100
